Results taken from PubChem BioAssay (NCI).
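Five concentrations, 48 hours, 96-well plates. GI50: concentration for 50% inhibition of growth. TGI: concentration producing complete growth inhibition.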

Columns and labels:
Experiment in all cases: inhibition of tumour cell growth, NCI panel, 48 h
OVCAR-4 ovarian = test system: OVCAR-4 ovarian
A549 NSCLC = test system: A549 NSCLC
A498 renal = test system: A498 renal
HCT-116 colon = test system: HCT-116 colon
HCT-15 colon = test system: HCT-15 colon
MOLT-4 leukemia = test system: MOLT-4 leukemia
K-562 leukemia = test system: K-562 leukemia
SK-MEL-28 melanoma = test system: SK-MEL-28 melanoma
CCRF-CEM leukemia = test system: CCRF-CEM leukemia
TK-10 renal = test system: TK-10 renal

NC(=O)CNc1ccc([As]=[As]c2ccc(NCC(N)=O)cc2)cc1 (stereo not given)
GI50 (OVCAR-4 ovarian): 2.61 µM | TGI (OVCAR-4 ovarian): 49.7 µM | GI50 (A549 NSCLC): 23.5 µM | TGI (A549 NSCLC): > 100 µM | GI50 (A498 renal): 4.69 µM | TGI (A498 renal): 18 µM | GI50 (HCT-116 colon): 3.64 µM | TGI (HCT-116 colon): 16.3 µM | GI50 (HCT-15 colon): 4.21 µM | TGI (HCT-15 colon): 60.7 µM | GI50 (MOLT-4 leukemia): 9.29 µM | TGI (MOLT-4 leukemia): > 100 µM | GI50 (K-562 leukemia): 3.47 µM | TGI (K-562 leukemia): > 100 µM | GI50 (SK-MEL-28 melanoma): 4.01 µM | TGI (SK-MEL-28 melanoma): 17.6 µM | GI50 (CCRF-CEM leukemia): 0.706 µM | TGI (CCRF-CEM leukemia): 73.6 µM

COc1cc2c3c(n(CCCN(C)CCO)c(=O)c2cc1OC)-c1cc2c(cc1C3=O)OCO2
GI50 (OVCAR-4 ovarian): 30.9 µM | TGI (OVCAR-4 ovarian): > 72.4 µM | GI50 (A549 NSCLC): 9.49 µM | TGI (A549 NSCLC): > 100 µM | GI50 (A498 renal): 8.19 µM | TGI (A498 renal): > 40.2 µM | GI50 (HCT-116 colon): 1.9 µM | TGI (HCT-116 colon): 30.7 µM | GI50 (HCT-15 colon): 6.79 µM | TGI (HCT-15 colon): > 100 µM | GI50 (MOLT-4 leukemia): < 0.013 µM | GI50 (TK-10 renal): 81.7 µM | TGI (TK-10 renal): > 100 µM | GI50 (K-562 leukemia): 0.439 µM | TGI (K-562 leukemia): 54.7 µM | GI50 (SK-MEL-28 melanoma): > 80.2 µM | TGI (SK-MEL-28 melanoma): > 100 µM | TGI (CCRF-CEM leukemia): 0.473 µM

CN(C)CCNc1nc2ccccc2c2c(=O)c3cc(F)ccc3sc12
GI50 (A549 NSCLC): 2.1 µM | TGI (A549 NSCLC): 4.83 µM | GI50 (HCT-116 colon): 1.58 µM | TGI (HCT-116 colon): 3.08 µM | GI50 (HCT-15 colon): 1.57 µM | TGI (HCT-15 colon): 3.08 µM | GI50 (TK-10 renal): 1.76 µM | TGI (TK-10 renal): 3.33 µM | GI50 (K-562 leukemia): 2 µM | TGI (K-562 leukemia): 4.84 µM | GI50 (SK-MEL-28 melanoma): 1.79 µM | TGI (SK-MEL-28 melanoma): 3.23 µM | GI50 (CCRF-CEM leukemia): 2.22 µM | TGI (CCRF-CEM leukemia): 5 µM

O=C1/C(=C/N2N=C(c3ccc4ccccc4c3)CC2c2ccccc2O)SC(=S)N1c1cccnc1 (stereo not given)
GI50 (OVCAR-4 ovarian): 4.41 µM | TGI (OVCAR-4 ovarian): > 100 µM | GI50 (A549 NSCLC): 0.704 µM | TGI (A549 NSCLC): > 100 µM | GI50 (A498 renal): 1.38 µM | TGI (A498 renal): 5.83 µM | GI50 (HCT-116 colon): 0.33 µM | TGI (HCT-116 colon): > 100 µM | GI50 (HCT-15 colon): 0.428 µM | TGI (HCT-15 colon): > 100 µM | GI50 (MOLT-4 leukemia): 2.46 µM | TGI (MOLT-4 leukemia): > 100 µM | GI50 (TK-10 renal): 1.84 µM | TGI (TK-10 renal): > 100 µM | GI50 (K-562 leukemia): 0.341 µM | TGI (K-562 leukemia): > 100 µM | GI50 (CCRF-CEM leukemia): 0.625 µM | TGI (CCRF-CEM leukemia): > 100 µM

C=CCC1(C)CCCCC1(O)CS(=O)c1ccccc1 (stereo not given)
TGI (OVCAR-4 ovarian): > 100 µM | TGI (A549 NSCLC): > 100 µM | TGI (A498 renal): > 100 µM | TGI (HCT-116 colon): > 100 µM | TGI (HCT-15 colon): > 100 µM | TGI (MOLT-4 leukemia): > 100 µM | TGI (TK-10 renal): > 100 µM | TGI (SK-MEL-28 melanoma): > 100 µM | TGI (CCRF-CEM leukemia): > 100 µM

Nc1ccc(C2=N/C(=C\c3cccc(N)c3)C(=O)O2)cc1
TGI (OVCAR-4 ovarian): > 100 µM | TGI (A549 NSCLC): > 100 µM | TGI (HCT-15 colon): > 100 µM | TGI (MOLT-4 leukemia): > 100 µM | TGI (TK-10 renal): > 100 µM | TGI (K-562 leukemia): > 100 µM | TGI (SK-MEL-28 melanoma): > 100 µM | TGI (CCRF-CEM leukemia): > 100 µM

CNCCn1c(=O)c2cc(OC)c(OC)cc2c2cnc3cc4c(cc3c21)OCO4
GI50 (OVCAR-4 ovarian): 0.0347 µM | TGI (OVCAR-4 ovarian): 2.21 µM | GI50 (A549 NSCLC): < 0.01 µM | TGI (A549 NSCLC): 1.31 µM | GI50 (A498 renal): 0.0194 µM | TGI (A498 renal): 0.135 µM | GI50 (HCT-116 colon): < 0.01 µM | TGI (HCT-116 colon): 0.135 µM | GI50 (HCT-15 colon): 0.0359 µM | TGI (HCT-15 colon): 1.55 µM | GI50 (MOLT-4 leukemia): < 0.01 µM | TGI (MOLT-4 leukemia): 0.0303 µM | GI50 (TK-10 renal): 0.0465 µM | TGI (TK-10 renal): 2.16 µM | GI50 (K-562 leukemia): 0.0252 µM | TGI (K-562 leukemia): 2.2 µM | GI50 (CCRF-CEM leukemia): < 0.01 µM | TGI (CCRF-CEM leukemia): 1.19 µM

O=C(NC1CCCCC1)c1ccc(Nc2ncnc3c2cnn3-c2ccccc2)cc1
GI50 (A549 NSCLC): 4.38 µM | TGI (A549 NSCLC): 51.3 µM | GI50 (A498 renal): 3.83 µM | TGI (A498 renal): 39.4 µM | GI50 (HCT-116 colon): 4.01 µM | TGI (HCT-116 colon): > 100 µM | GI50 (HCT-15 colon): 99.3 µM | TGI (HCT-15 colon): > 100 µM | GI50 (MOLT-4 leukemia): 75.6 µM | TGI (MOLT-4 leukemia): > 100 µM | GI50 (TK-10 renal): 16.5 µM | TGI (TK-10 renal): 49.5 µM | GI50 (SK-MEL-28 melanoma): 3.79 µM | TGI (SK-MEL-28 melanoma): > 100 µM | GI50 (CCRF-CEM leukemia): > 100 µM | TGI (CCRF-CEM leukemia): > 100 µM

CCOC(=O)C1=C(Nc2ccc(Br)cc2)OCC1=O
TGI (OVCAR-4 ovarian): > 100 µM | TGI (A549 NSCLC): > 100 µM | TGI (A498 renal): > 100 µM | TGI (HCT-116 colon): > 100 µM | TGI (HCT-15 colon): > 100 µM | TGI (MOLT-4 leukemia): > 100 µM | TGI (TK-10 renal): > 100 µM | TGI (SK-MEL-28 melanoma): > 100 µM | TGI (CCRF-CEM leukemia): > 100 µM

COc1cc(C(=O)O[C@H](C(N)=O)[C@]2(C)CO2)c2cccc(C)c2c1
TGI (OVCAR-4 ovarian): > 26 µM | TGI (A549 NSCLC): > 100 µM | GI50 (A498 renal): 4.31 µM | TGI (A498 renal): 15.4 µM | GI50 (HCT-116 colon): 0.431 µM | TGI (HCT-116 colon): 2.32 µM | GI50 (HCT-15 colon): 0.282 µM | TGI (HCT-15 colon): 2.82 µM | GI50 (TK-10 renal): < 0.0406 µM | GI50 (SK-MEL-28 melanoma): 0.0744 µM | TGI (SK-MEL-28 melanoma): 1.7 µM | TGI (CCRF-CEM leukemia): 5.94 µM

Cn1cc(-c2csc(-c3cn(C)c4ccc(F)cc34)n2)c2cnccc21
GI50 (OVCAR-4 ovarian): 1.7 µM | TGI (OVCAR-4 ovarian): 3.16 µM | GI50 (A549 NSCLC): 1.67 µM | TGI (A549 NSCLC): 3.27 µM | GI50 (A498 renal): 1.62 µM | TGI (A498 renal): 3.04 µM | GI50 (HCT-116 colon): 1.66 µM | TGI (HCT-116 colon): 3.06 µM | GI50 (HCT-15 colon): 1.68 µM | TGI (HCT-15 colon): 3.27 µM | GI50 (TK-10 renal): 1.56 µM | TGI (TK-10 renal): 2.98 µM | GI50 (K-562 leukemia): 1.7 µM | TGI (K-562 leukemia): 3.78 µM | GI50 (SK-MEL-28 melanoma): 1.79 µM | TGI (SK-MEL-28 melanoma): 3.22 µM | GI50 (CCRF-CEM leukemia): 1.96 µM | TGI (CCRF-CEM leukemia): 4.13 µM

COC(=O)c1c[nH]cc1CCCCc1c[nH]cc1C(=O)OC
TGI (OVCAR-4 ovarian): > 100 µM | TGI (A549 NSCLC): > 100 µM | TGI (A498 renal): > 100 µM | TGI (HCT-116 colon): > 100 µM | TGI (MOLT-4 leukemia): > 100 µM | TGI (TK-10 renal): > 100 µM | TGI (K-562 leukemia): > 100 µM | TGI (SK-MEL-28 melanoma): > 100 µM | TGI (CCRF-CEM leukemia): > 100 µM

CCc1cccc(C)c1NC(=O)CC1C(=O)Nc2ccccc2S1=O (stereo not given)
TGI (OVCAR-4 ovarian): > 100 µM | TGI (A549 NSCLC): > 100 µM | TGI (HCT-116 colon): > 100 µM | TGI (HCT-15 colon): > 100 µM | TGI (MOLT-4 leukemia): > 100 µM | TGI (TK-10 renal): > 100 µM | TGI (K-562 leukemia): > 100 µM | TGI (SK-MEL-28 melanoma): > 100 µM

Oc1ccc(/C=C/c2cc(O)cc3c2C(c2cc(O)cc(O)c2)C(c2ccc(O)c(O)c2)O3)cc1 (stereo not given)
TGI (OVCAR-4 ovarian): 41.2 µM | TGI (A549 NSCLC): > 100 µM | TGI (A498 renal): > 100 µM | TGI (HCT-116 colon): > 100 µM | TGI (HCT-15 colon): 45.4 µM | TGI (MOLT-4 leukemia): 33.5 µM | TGI (TK-10 renal): > 100 µM | TGI (SK-MEL-28 melanoma): > 100 µM | TGI (CCRF-CEM leukemia): > 100 µM

CC(C)(C)OC(=O)N1C2CCCC23O[C@@H]1c1cc2c(cc1C3=O)OCO2 (stereo not given in full)
TGI (OVCAR-4 ovarian): > 100 µM | TGI (A549 NSCLC): > 100 µM | TGI (HCT-116 colon): > 100 µM | TGI (MOLT-4 leukemia): > 100 µM | TGI (TK-10 renal): > 100 µM | TGI (K-562 leukemia): > 100 µM | TGI (SK-MEL-28 melanoma): > 100 µM | TGI (CCRF-CEM leukemia): > 100 µM

C=C1C(O)C2C(=C(C)C13CC3)C(=O)C(C)(C)C2OC (stereo not given)
GI50 (OVCAR-4 ovarian): > 100 µM | TGI (OVCAR-4 ovarian): > 100 µM | GI50 (A549 NSCLC): > 100 µM | TGI (A549 NSCLC): > 100 µM | GI50 (HCT-116 colon): > 100 µM | TGI (HCT-116 colon): > 100 µM | GI50 (HCT-15 colon): > 100 µM | TGI (HCT-15 colon): > 100 µM | GI50 (MOLT-4 leukemia): 38.6 µM | TGI (MOLT-4 leukemia): > 100 µM | GI50 (TK-10 renal): > 100 µM | TGI (TK-10 renal): > 100 µM | GI50 (K-562 leukemia): 42.9 µM | TGI (K-562 leukemia): > 100 µM | GI50 (SK-MEL-28 melanoma): > 100 µM | TGI (SK-MEL-28 melanoma): > 100 µM | GI50 (CCRF-CEM leukemia): 78.3 µM | TGI (CCRF-CEM leukemia): > 100 µM
